# According to US5726302A, “Water soluble adenosine kinase inhibitors” (Gensia Inc., priority 1995, dated 1998):
# pIC50: −log10 of the molar value. Structures can show the parent of a compound that is named as a salt.
# Columns and labels:
# Water solubility = type: physicochemical
# Experimental: The sample was sonicated for a period of up to 20 minutes. If a solution was not obtained, further solvent was added and the process was repeated until a clear solution was obtained, and the results were recorded. Solutions used were 50 mM potassium biphthalate (pH 4); 100 mM glycine (pH 9); 25 mM sodium carbonate and 25 mM sodium bicarbonate (pH 10); or deionized water (DI).
# male SA rats [1] = assay: Anticonvulsant activity, maximal electroshock (MES) model; type: in vivo; settings: Rattus norvegicus, 1 h
# Experimental: The anticonvulsant activity of the tested compounds was evaluated in male SA rats (100-150 g, Simonsen) using the maximal electroshock (MES) model described in Swinyard et al., Antiepileptic Drugs, 3d Ed. at 85-102 (Levy, et al., eds.), N.Y.: Raven Press (1989). The rats were maintained on a 12/12 light/dark cycle in temperature controlled facilities with free access to food and water. For p.o. administration, the animals are fasted overnight, prior to the experiment. One hour prior to seizure testing, the animals were injected interperitoneally (ip) or orally (per os, […]) with one of various doses of test compound dissolved in DMSO or PEG 400.
# This endpoint was expressed as the percentage of animals in which the response was inhibited.
# [2] = molecular target: partially purified pig heart adenosine kinase (Sus scrofa, UniProt A0A5G2R0F5); assay: biochemical; settings: pig heart adenosine kinase; 0.5 μM adenosine, pH 7.0, 20 minutes at 37° C; read-out: AK Inhibition (IC50)
# Experimental: Adenosine kinase activity was measured essentially as described by Yamada et al Biochim. Biophys. Acta 660, 36-43 (1988) with a few minor modifications. Assay mixtures contained 50 mM TRIS-maleate buffer, pH 7.0, 0.1% BSA, 1 mM ATP 1 mM MgCl2, 0.5 μM [U-^14 C] adenosine (400-600 mCi/mmol) and varying duplicate concentrations of inhibitor. The reactions were initiated by addition of approximately 0.1 μU partially purified pig heart adenosine kinase, where one unit is defined as that amount of enzyme required to phosphorylate 1 μmol adenosine per minute. The reactions were incubated for 20 minutes at 37° C. The assay was quenched upon spotting 30 μL aliquots onto 2 cm^2 pieces of Whatman DE81 anion exchange paper. The paper squares were washed for 3 minutes in 6 L distilled/deionized water to remove the unreacted adenosine. […] The amount of ^14 C-AMP was quantified by scintillation counting.
# Rats = assay: Anti-inflammatory activity, carrageenan paw; type: in vivo, rat; settings: 10 mg/kg, swelling after 3 hours
# Experimental: Carrageenan (Type λ) was suspended in sterile PBS at 1% (w/v), autoclaved for 30 minutes, and stored at room temperature. Rats were pretreated with vehicle or AK inhibitor (10 mg/kg) by oral gavage or i.p. administration and the volume of the left hind paw was measured using a water displacement plethysmometer (Stoelting Co., Wood Dale, Ill.). One hour after oral treatment or 30 minutes after i.p. treatment, the rats were briefly anesthetized, and 0.1 ml of the carrageenan solution was injected subcutaneously into the planar surface of the left hind paw. The ensuing paw swelling was measured by plethysmometry after 3 hours. The paw volume in millileters was subtracted from the pre-injection paw volume. Data are presented as the percent inhibition of paw swelling in AK inhibitor treated animals, compared to vehicle treated control animals.
# male SA rats [3] = assay: Analgesic activity, hot plate; type: in vivo; settings: Rattus norvegicus, ip
# male SA rats [4] = assay: Analgesic activity, tail flick; type: in vivo; settings: Rattus norvegicus, ip
# mice = settings: cited from earlier work
# anesthetized rats = settings: cited from earlier work
# Female SA rats = assay: Liver toxicity assay; type: in vivo, rat; settings: iv infusion 2 x 37.5 μmole/kg, 12 hours after second dose
# Experimental: Female SA rats (150-200 g) are anesthetized with halothane and cannulated via the internal jugular vein. The animals are allowed to recover for 3 days. At this time, 37.5 μmole/kg of an AK inhibitor is dissolved in 50% PEG400 and infused through the jugular catheter over 20 minutes. Twelve hours later, an additional 37.5 μmole/kg is infused over 20 minutes (total dose=75 μmole/kg). […] Liver enzymes (serum glutamic-oxaloacetic transaminase (SGOT), serum glutamic-pyruvic transaminase (SGPT), alkaline phosphatase) and total bilirubin in the serum samples are determined by a commercial laboratory.
# [5] = po, one hour after dosing, fasted
# [6] = pH 4 (50 mM potassium biphthalate)
# [7] = ip, 30 minutes before carrageenan
# [8] = po, one hour before carrageenan
# partially purified pig heart adenosine kinase, sequence (A0A5G2R0F5 1-362): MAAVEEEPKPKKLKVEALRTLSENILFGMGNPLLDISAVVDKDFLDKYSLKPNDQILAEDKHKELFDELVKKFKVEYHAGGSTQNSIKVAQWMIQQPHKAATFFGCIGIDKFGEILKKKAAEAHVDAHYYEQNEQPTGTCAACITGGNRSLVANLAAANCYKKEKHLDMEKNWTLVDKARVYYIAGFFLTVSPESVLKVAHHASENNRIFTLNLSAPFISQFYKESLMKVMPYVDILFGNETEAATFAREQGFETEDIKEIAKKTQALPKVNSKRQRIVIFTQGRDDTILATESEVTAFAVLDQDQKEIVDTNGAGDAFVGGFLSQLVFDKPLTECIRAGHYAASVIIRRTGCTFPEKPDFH
smiles,measurement,setting,value
"C[C@H]1O[C@@H](n2cc(-c3ccccc3)c3c(Nc4ccccc4)ncnc32)[C@H](O)[C@@H]1O [5-phenyl-4-N-phenylamino-7-(5-deoxy-1-β-D-ribofuranosyl)pyrrolo[2,3-d]pyrimidine, reference compound]",water solubility,Water solubility; pH suitable for i.v. administration (e.g. pH 4 to 10),less than 20 μg/ml
"C[C@H]1O[C@@H](n2cc(-c3ccccc3)c3c(Nc4ccc(CCN5CCOCC5)cc4)ncnc32)[C@H](O)[C@@H]1O [Compound 3, 4-N[2-(4-morpholino)ethylphenyl]amino-5-phenyl-7-(5-deoxy-β-D-ribofuranosyl)pyrrolo[2,3-d]pyrimidine]",ED50,male SA rats [1]; [5],> 40 mg/kg
same,pIC50,[2],8.70
same,solubility,Water solubility; [6],> 1000 µg/mL
"C[C@H]1O[C@@H](n2cc(-c3ccccc3)c3c(Nc4ccc(CCN5CCNCC5)cc4)ncnc32)[C@H](O)[C@@H]1O [Compound 4, 4-N[2-(1-piperazino)ethylphenyl]amino-5-phenyl-7-(5-deoxy-β-D-ribofuranosyl)pyrrolo[2,3-d]pyrimidine]",Carrageenan Paw (% inhibition) of paw swelling,Rats; [7],39.9%
same,Carrageenan Paw (% inhibition) of paw swelling,Rats; [8],2.5%
same,solubility,Water solubility; [6],> 1000 µg/mL
"CCN(CC)CCNCCc1ccc(Nc2ncnc3c2c(-c2ccccc2)cn3[C@@H]2O[C@H](C)[C@@H](O)[C@H]2O)cc1 [Compound 5, 4-N[2-(2-N,N-diethylaminoethyleneamino)ethylphenyl]amino-5-phenyl-7-(5-deoxy-β-D-ribofuranosyl)pyrrolo[2,3-d]pyrimidine]",Carrageenan Paw (% inhibition) of paw swelling,Rats; [7],-3.4%
same,Carrageenan Paw (% inhibition) of paw swelling,Rats; [8],4.1%
same,pIC50,[2],9.00
same,solubility,Water solubility; deionized water (DI),> 5000 µg/mL
"CCN(CC)CCc1ccc(Nc2ncnc3c2c(-c2ccccc2)cn3[C@@H]2O[C@H](C)[C@@H](O)[C@H]2O)cc1 [Compound 6, 4-N[2-N,N-diethylaminoethylphenyl]amino-5-phenyl-7-(5-deoxy-β-D-ribofuranosyl)pyrrolo[2,3-d]pyrimidine]",pIC50,[2],9.00
same,solubility,Water solubility; [6],> 1000 µg/mL
"C[C@H]1O[C@@H](n2cc(-c3ccccc3)c3c(Nc4ccc(CCN(C)C)cc4)ncnc32)[C@H](O)[C@@H]1O [Compound 7, 4-N[2-N,N-dimethylaminoethylphenyl]amino-5-phenyl-7-(5-deoxy-β-D-fibofuranosyl)pyrrolo[2,3-d]pyrimidine]",Carrageenan Paw (% inhibition) of paw swelling,Rats; [7],19.0%
same,Carrageenan Paw (% inhibition) of paw swelling,Rats; [8],7.7%
same,pIC50,[2],9.00
same,solubility,Water solubility; [6],> 1000 µg/mL
"C[C@H]1O[C@@H](n2cc(-c3ccccc3)c3c(Nc4ccc(NS(=O)(=O)C(F)(F)F)cc4)ncnc32)[C@H](O)[C@@H]1O [Compound 8, 4-N-(4-N-trifluoromethanesulfonylaminophenyl)amino-5-phenyl-7-(5-deoxy-1-β-D-ribofuranosyl) pyrrolo(2,3-d)pyrimidine]",solubility,"Water solubility; sodium carbonate/sodium bicarbonate buffer, pH 10 (25 mM sodium carbonate and 25 mM sodium bicarbonate)",> 1000 µg/mL
"C[C@H]1O[C@@H](n2cc(-c3ccccc3)c3c(Nc4ccc(CCN)cc4)ncnc32)[C@H](O)[C@@H]1O [Compound 22, 4-N-(2-Aminoethylphenyl)amino-5-phenyl-7-(5-deoxy-β-D-ribofuranosyl)pyrrolo[2,3-d]pyrimidine]",Carrageenan Paw (% inhibition) of paw swelling,Rats; [7],31.6%
same,Carrageenan Paw (% inhibition) of paw swelling,Rats; [8],12.4%
same,solubility,Water solubility; [6],> 1000 µg/mL
"C[C@H]1O[C@@H](n2cc(-c3ccccc3)c3c(Nc4ccc(C(N)=NO)cc4)ncnc32)[C@H](O)[C@@H]1O [Compound 37, 4-N-(4-amidoximephenyl)amino-5-phenyl-7-(5-deoxy-1-β-D-ribofuranosylpyrrolo[2,3-d]pyrimidine hydrochloride]",pIC50,[2],8.30
CC(=O)NS(=O)(=O)c1ccc(Nc2ncnc3c2c(-c2ccccc2)cn3[C@@H]2O[C@H](C)[C@@H](O)[C@H]2O)cc1 [Compound 40],ED50,male SA rats [1]; ip,> 5 mg/kg
same,pIC50,[2],5.52
same,solubility,Water solubility; pH 9 (100 mM glycine),> 1000 µg/mL
"C[C@H]1O[C@@H](n2cc(I)c3c(NCc4ccccn4)ncnc32)[C@H](O)[C@@H]1O [Compound 41, 4-N-(2-Pyridylmethylamino)-5-iodo-7-(5-deoxy-1 -β-D-ribofuranosyl)pyrrolo[2,3-d]pyrimidine]",ED50,male SA rats [3],1.2 mg/kg
same,Carrageenan Paw (% inhibition) of paw swelling,Rats; [7],84.8%
same,Carrageenan Paw (% inhibition) of paw swelling,Rats; [8],90.6%
same,pIC50,[2],7.15
same,ED50,male SA rats [4],< 1 mg/kg
"C[C@H]1O[C@@H](n2cc(I)c3c(NCc4ccncc4)ncnc32)[C@H](O)[C@@H]1O [Compound 42, 4-N-(4-pyridylmethylamino)-5-iodo-7-(5-deoxy-1-β-D-ribofuranosyl)pyrrolo[2,3-d]pyrimidine]",ED50,male SA rats [1]; ip,2 mg/kg
"C[C@H]1O[C@@H](n2cc(I)c3c(NCc4cccnc4)ncnc32)[C@H](O)[C@@H]1O [Compound 44, 4-N-(3-pyridylmethylamino)-5-iodo-7-(5-deoxy-1-β-D-ribofuranosyl)pyrrolo[2,3-d]pyrimidine]",pIC50,[2],6.92
"C[C@H]1O[C@@H](n2cc(I)c3c(NCc4nc5ccccc5[nH]4)ncnc32)[C@H](O)[C@@H]1O [Compound 45, 4-N-(2-benzimidazolylmethyl)amino-5-iodo-7-(5-deoxy-1-β-D-ribofuranosyl) pyrrolo[(2,3-d)]pyrimidine]",pIC50,[2],6.30
"OC[C@@H]1O[C@@H](n2cc(I)c3c(NCc4ccccn4)ncnc32)[C@H](O)[C@@H]1O [Compound 46, 4-N-(2-pyridylmethyl)amino-5-iodo-7-(α-L-lyxofuranosyl)pyrrolo(2,3-d)pyrimidine]",pIC50,[2],6.66
"C[C@H]1O[C@@H](n2cc(-c3cccnc3)c3c(Nc4ccccc4)ncnc32)[C@H](O)[C@@H]1O [Compound 47, 4-N-Phenylamino-5-(3-pyridino)-7-(5-deoxy-1-β-D-ribofuranosyl) pyrrolo[2,3-d]pyrimidine]",Carrageenan Paw (% inhibition) of paw swelling,Rats; [7],-4.4%
same,Carrageenan Paw (% inhibition) of paw swelling,Rats; [8],9.8%
same,pIC50,[2],7.26
"C[C@H]1O[C@@H](n2cc(-c3cccnc3)c3c(NCc4ccccn4)ncnc32)[C@H](O)[C@@H]1O [Compound 48, 4-N-(2-pyridylmethyl)amino-5-(3-pyridino)-7-(5-deoxy-1-β-D-ribofuranosyl)pyrrolo[2,3-d]pyrimidine]",pIC50,[2],6.52
"C[C@H]1O[C@@H](n2cc(-c3ccccc3)c3c(NCc4ccncc4)ncnc32)[C@H](O)[C@@H]1O [Compound 49, 4-N-(4-pyridylmethyl)amino-5-phenyl-7-(5-deoxy-1-β-D-ribofuranosyl)-pyrrolo[2,3-d]pyrimidine]",ED50,male SA rats [1]; [5],40 mg/kg
same,pIC50,[2],7.17
C[C@H]1O[C@@H](n2cc(I)c3c(N)ncnc32)[C@H](O)[C@@H]1O [REF. A],general flaccidity (skeletal muscle relaxation),mice,pronounced general flaccidity
same,hypothermia,mice,hypothermia
same,spontaneous locomotor activity,mice,much-reduced spontaneous locomotor activity
same,blood pressure,anesthetized rats,decrease blood pressure
same,heart rate,anesthetized rats,decrease blood pressure and heart rate
same,Alkaline Phosphatase,Female SA rats,163 IU/L
same,SGOT,Female SA rats,508 IU/L
same,SGPT,Female SA rats,76 IU/L
same,Total Bilirubin,Female SA rats,0.76 mg/dL
"NC[C@H]1O[C@@H](n2nc(Br)c3c(N)ncnc32)[C@H](O)[C@@H]1O [REF. B, 4amino-1-(5-amino-5-deoxy-1-D-ribofuranosyl)-3-bromopyrazolo[3,4d]pyrimidne HCL]",Alkaline Phosphatase,Female SA rats,113 IU/L
same,SGOT,Female SA rats,100 IU/L
same,SGPT,Female SA rats,41 IU/L
same,Total Bilirubin,Female SA rats,0.30 mg/dL
